Like-named read-outs stand apart in the source and are kept apart here.
What was measured:
Experiment in all cases: Kinase panel profiling at 1 µmol/L (MSA or IMAP), percentage inhibition
Format in all cases: biochemical
[1] = target: T1, panel of 255 wild-type kinases (Homo sapiens, UniProt Q15139); details: read-out: %-inhibition at 1 µmol/L, PKD1
T1 sequence (Q15139 1-912): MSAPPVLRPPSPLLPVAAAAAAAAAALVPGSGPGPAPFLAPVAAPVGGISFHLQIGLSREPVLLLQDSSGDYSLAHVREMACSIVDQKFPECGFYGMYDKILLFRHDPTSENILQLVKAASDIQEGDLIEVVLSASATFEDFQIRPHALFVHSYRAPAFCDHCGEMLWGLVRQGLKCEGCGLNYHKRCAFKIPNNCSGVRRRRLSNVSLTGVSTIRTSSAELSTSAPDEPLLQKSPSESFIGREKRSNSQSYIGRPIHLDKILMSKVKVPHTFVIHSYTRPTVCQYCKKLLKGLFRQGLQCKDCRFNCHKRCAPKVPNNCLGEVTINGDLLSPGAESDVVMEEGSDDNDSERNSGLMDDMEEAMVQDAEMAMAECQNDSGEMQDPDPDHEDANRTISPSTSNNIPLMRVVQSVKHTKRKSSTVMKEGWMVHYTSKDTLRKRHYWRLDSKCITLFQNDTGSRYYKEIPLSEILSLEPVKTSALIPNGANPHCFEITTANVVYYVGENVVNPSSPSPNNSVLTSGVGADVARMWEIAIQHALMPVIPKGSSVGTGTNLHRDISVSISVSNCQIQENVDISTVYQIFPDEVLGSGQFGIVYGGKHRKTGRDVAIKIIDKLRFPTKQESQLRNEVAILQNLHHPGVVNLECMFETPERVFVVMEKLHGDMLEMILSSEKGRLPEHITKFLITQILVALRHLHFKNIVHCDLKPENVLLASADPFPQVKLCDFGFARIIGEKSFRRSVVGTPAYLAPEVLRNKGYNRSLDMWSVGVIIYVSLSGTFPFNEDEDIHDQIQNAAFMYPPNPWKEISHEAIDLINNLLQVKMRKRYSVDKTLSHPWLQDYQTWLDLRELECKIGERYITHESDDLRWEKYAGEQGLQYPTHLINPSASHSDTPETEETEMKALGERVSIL

[2] = target: T2, panel of 255 wild-type kinases (Homo sapiens, UniProt O15111); details: read-out: %-inhibition at 1 µmol/L, IKKα
T2 sequence (O15111 1-745): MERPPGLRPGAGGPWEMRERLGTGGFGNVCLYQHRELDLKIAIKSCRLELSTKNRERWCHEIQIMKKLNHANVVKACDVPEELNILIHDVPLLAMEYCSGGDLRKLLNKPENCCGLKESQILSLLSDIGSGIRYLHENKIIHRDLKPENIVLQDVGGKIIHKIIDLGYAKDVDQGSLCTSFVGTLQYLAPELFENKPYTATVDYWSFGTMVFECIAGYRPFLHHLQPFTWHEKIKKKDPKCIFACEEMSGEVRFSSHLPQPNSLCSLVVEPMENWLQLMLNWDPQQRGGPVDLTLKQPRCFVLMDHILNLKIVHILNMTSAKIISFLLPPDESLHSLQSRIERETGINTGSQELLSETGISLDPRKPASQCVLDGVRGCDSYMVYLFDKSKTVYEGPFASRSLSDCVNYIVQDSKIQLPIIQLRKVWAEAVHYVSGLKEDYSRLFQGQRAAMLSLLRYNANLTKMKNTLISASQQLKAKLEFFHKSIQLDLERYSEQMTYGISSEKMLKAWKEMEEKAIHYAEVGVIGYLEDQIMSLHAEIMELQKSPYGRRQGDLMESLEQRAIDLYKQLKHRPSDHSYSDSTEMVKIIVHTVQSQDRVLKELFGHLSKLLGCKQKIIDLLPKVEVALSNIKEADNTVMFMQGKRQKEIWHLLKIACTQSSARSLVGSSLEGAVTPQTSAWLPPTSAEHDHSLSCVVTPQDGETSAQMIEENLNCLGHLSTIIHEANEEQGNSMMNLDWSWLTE

[3] = target: T3, panel of 255 wild-type kinases (Homo sapiens, UniProt Q16832); details: read-out: %-inhibition at 1 µmol/L, DDR2
T3 sequence (Q16832 22-855): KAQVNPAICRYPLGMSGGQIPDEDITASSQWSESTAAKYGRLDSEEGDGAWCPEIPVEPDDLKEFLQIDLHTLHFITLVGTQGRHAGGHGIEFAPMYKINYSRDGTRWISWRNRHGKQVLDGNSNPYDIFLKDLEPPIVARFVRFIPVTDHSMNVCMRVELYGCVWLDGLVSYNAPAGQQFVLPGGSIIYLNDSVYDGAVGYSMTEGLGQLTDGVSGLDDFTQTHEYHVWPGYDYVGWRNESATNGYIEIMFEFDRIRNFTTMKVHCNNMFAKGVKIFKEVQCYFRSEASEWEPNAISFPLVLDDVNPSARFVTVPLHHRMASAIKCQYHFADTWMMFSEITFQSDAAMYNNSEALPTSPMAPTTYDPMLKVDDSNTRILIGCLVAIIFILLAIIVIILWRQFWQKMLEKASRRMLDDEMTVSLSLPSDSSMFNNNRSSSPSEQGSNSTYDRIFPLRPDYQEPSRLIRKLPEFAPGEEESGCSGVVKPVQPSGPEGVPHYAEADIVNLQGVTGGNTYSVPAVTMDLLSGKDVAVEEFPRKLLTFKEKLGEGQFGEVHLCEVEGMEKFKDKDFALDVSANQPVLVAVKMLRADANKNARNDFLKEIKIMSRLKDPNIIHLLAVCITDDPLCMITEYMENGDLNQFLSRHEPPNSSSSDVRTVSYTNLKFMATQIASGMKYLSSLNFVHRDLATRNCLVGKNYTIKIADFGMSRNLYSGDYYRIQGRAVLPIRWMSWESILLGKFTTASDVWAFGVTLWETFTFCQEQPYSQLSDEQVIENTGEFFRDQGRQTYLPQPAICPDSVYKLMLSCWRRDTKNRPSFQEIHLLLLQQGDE

[4] = target: panel of 255 wild-type kinases (Homo sapiens, UniProt P24723); details: read-out: %-inhibition at 1 µmol/L, PKCη
[5] = target: panel of 255 wild-type kinases (Homo sapiens, UniProt P50750); details: read-out: %-inhibition CDK9/CycT1
[6] = target: panel of 255 wild-type kinases (Homo sapiens, UniProt Q15208); details: read-out: %-inhibition, NDR1
[7] = kinase PKD1, 1 µmol/L single concentration
[8] = kinase IKKα, 1 µmol/L single concentration
[9] = kinase DDR2, 1 µmol/L single concentration
[10] = kinase PKCη, 1 µmol/L single concentration
[11] = CDK9/CycT1 kinase assay, 1 µmol/L single concentration
[12] = NDR1, 1 µmol/L single concentration

Row | Compound | inhibition at 1 µM [1, 7] [%] | inhibition at 1 µM [2, 8] [%] | inhibition at 1 µM [3, 9] [%] | inhibition at 1 µM [4, 10] [%] | inhibition at 1 µM [5, 11] [%] | inhibition at 1 µM [6, 12] [%] | inhibition at 1 µM [1] [%] | inhibition at 1 µM [2] [%] | inhibition at 1 µM [3] [%] | inhibition at 1 µM [4] [%] | inhibition at 1 µM [5] [%] | inhibition at 1 µM [6] [%]
1 | Cc1nc(NC(=O)N2CCC[C@H]2C(N)=O)sc1-c1ccnc(C(C)(C)C(F)(F)F)c1 [alpelisib] | -2 | 6 | 5.45 | 1.42 | -0.929 | 0.245 |  |  |  |  |  | 
2 | Cn1cc(-c2cc3c(N4CCN(c5ncc([C@@](C)(N)c6ccc(F)cc6)cn5)CC4)ncnn3c2)cn1 [avapritinib] | 6.4 | 2.41 | 98 | -5 | 49 | -1.28 |  |  |  |  |  | 
3 | Cn1cnc2c(F)c(Nc3ccc(Br)cc3F)c(C(=O)NOCCO)cc21 [binimetinib] | -1.69 | 9 | -10 | 6 | -1.47 | -1.86 |  |  |  |  |  | 
4 | CNC(=O)c1ccc(-c2cnc3ncc(Cc4ccc5ncccc5c4)n3n2)cc1F [capmatinib] |  |  |  |  |  |  | -5 | 1.1 | -1 | -8.53 | -0.278 | -0.897
5 | COc1cc2ncnc(Nc3ccc(F)c(Cl)c3)c2cc1NC(=O)/C=C/CN1CCCCC1 [dacomitinib] | 9.49 | 10 | 93 | 11 | 3.6 | -0.0726 |  |  |  |  |  | 
6 | C[C@H](Nc1ncnc2nc[nH]c12)c1cc2cccc(Cl)c2c(=O)n1-c1ccccc1 [duvelisib] | -3.47 | 8 | 8 | 0.743 | -0.441 | 0.434 |  |  |  |  |  | 
7 | COC(=O)N[C@@H](C)CNc1nccc(-c2cn(C(C)C)nc2-c2cc(Cl)cc(NS(C)(=O)=O)c2F)n1 [encorafenib] | 0.18 | 12 | -7 | 13 | -1.11 | 1.12 |  |  |  |  |  | 
8 | CN1CCN(c2ccc(C(=O)Nc3n[nH]c4ccc(Cc5cc(F)cc(F)c5)cc34)c(NC3CCOCC3)c2)CC1 [entrectinib] | 1.46 | 8 | 100 | 19 | 1.79 | 49 |  |  |  |  |  | 
9 | CCc1nc(C(N)=O)c(Nc2ccc(N3CCC(N4CCN(C)CC4)CC3)c(OC)c2)nc1NC1CCOCC1 [gilteritinib] | 52 | 2.16 | 99 | 13 | 32 | 68 |  |  |  |  |  | 
10 | CCN1CCN(c2ccc(Nc3cc(N(C)C(=O)Nc4c(Cl)c(OC)cc(OC)c4Cl)ncn3)cc2)CC1 [infigratinib] | 11 | 2.62 | 63 | 2 | -0.383 | 1.4 |  |  |  |  |  | 
11 | O=C(Nc1cnn2ccc(N3CCC[C@@H]3c3cc(F)ccc3F)nc12)N1CC[C@H](O)C1 [larotrectinib] | 0.148 | 2.45 | 26 | 1.58 | -0.399 | -2.75 |  |  |  |  |  | 
12 | C[C@H]1Oc2cc(cnc2N)-c2c(nn(C)c2C#N)CN(C)C(=O)c2ccc(F)cc21 [lorlatinib] | -0.468 | 12 | 21 | 0.817 | -2.48 | 3.5 |  |  |  |  |  | 
13 | CCN1C(=O)N(c2c(F)c(OC)cc(OC)c2F)Cc2cnc3[nH]c(CN4CCOCC4)cc3c21 [pemigatinib] | 10 | -6 | 5 | 5 | 7 | -4.31 |  |  |  |  |  | 
14 | FC(F)(F)c1ccc(CNc2ccc(Cc3c[nH]c4ncc(Cl)cc34)cn2)cn1 [pexidartinib] | -2.56 | -0.379 | 90 | 0.77 | 7 | 13 |  |  |  |  |  | 
15 | CO[C@]1(C(=O)N[C@@H](C)c2ccc(-n3cc(F)cn3)nc2)CC[C@H](c2nc(C)cc(Nc3cc(C)[nH]n3)n2)CC1 [pralsetinib] | 0.3 | -1.52 | 102 | -3.21 | 6 | 7.54 |  |  |  |  |  | 
16 | CCn1c(=O)c(-c2cc(NC(=O)Nc3ccccc3)c(F)cc2Br)cc2cnc(NC)cc21 [ripretinib] | 15 | 1.08 | 98 | 0.077 | 0.112 | 0.881 |  |  |  |  |  | 
17 | COc1ccc(CN2C3CC2CN(c2ccc(-c4cc(OCC(C)(C)O)cn5ncc(C#N)c45)cn2)C3)cn1 [selpercatinib] | 3.64 | -1.36 | 73 | 4.42 | 2.54 | -1.18 |  |  |  |  |  | 
18 | Cn1cnc2c(F)c(Nc3ccc(Br)cc3Cl)c(C(=O)NOCCO)cc21 [selumetinib] | -0.6 | -0.157 | -0.119 | -3.21 | -2.15 | 0.227 |  |  |  |  |  | 
